# According to ChEMBL document CHEMBL1201862, “PubChem BioAssay data set” (2004):
#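 Assay format: 96-well plates, 48-hour exposure. Here, GI50 denotes the concentration required for 50% inhibition of growth.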 Calls of active or inactive are those of the source. Cut-off read from the data, not from the text of the source: active = GI50 up to about 1.1 µM and inactive = higher.
# Legend:
# Assay in all cases: NCI tumour cell line growth inhibition, 48 h
# K562 = system: K562
# RPMI-8226 = system: RPMI-8226
# HT-29 = system: HT-29
# SK-OV-3 = system: SK-OV-3
# HCT-116 = system: HCT-116
# OVCAR-5 = system: OVCAR-5
# KM12 = system: KM12
# NCI-H226 = system: NCI-H226
# RXF 393 = system: RXF 393
# NCI-H460 = system: NCI-H460
# HOP-62 = system: HOP-62
# SN12C = system: SN12C
# HCT-15 = system: HCT-15
# NCI-H23 = system: NCI-H23
# A498 = system: A498
# SK-MEL-2 = system: SK-MEL-2
# UACC-257 = system: UACC-257
# HL-60 = system: HL-60
# A549 = system: A549
# SF-539 = system: SF-539
SMILES,GI50 (K562),GI50 (RPMI-8226),GI50 (HT-29),GI50 (SK-OV-3),GI50 (HCT-116),GI50 (OVCAR-5),GI50 (KM12),GI50 (NCI-H226),GI50 (RXF 393),GI50 (NCI-H460),GI50 (HOP-62),GI50 (SN12C),GI50 (HCT-15),GI50 (NCI-H23),GI50 (A498),GI50 (SK-MEL-2),GI50 (UACC-257),GI50 (HL-60),GI50 (A549),GI50 (SF-539)
CCc1nnc2sc(-c3ccc(-c4ccc(Cl)cc4Cl)o3)nn12,47.2 µM (inactive),29.2 µM (inactive),96.2 µM (inactive),43.1 µM (inactive),62.5 µM (inactive),> 100 µM (inactive),> 100 µM (inactive),50.6 µM (inactive),3.79 µM (inactive),67 µM (inactive),61.9 µM (inactive),60.7 µM (inactive),61.7 µM,76.4 µM (inactive),30.3 µM (inactive),58.7 µM (inactive),43.9 µM (inactive),27 µM (inactive),73.5 µM (inactive),
O[C@H]1[C@H]2[C@H](O)CCCN2C[C@H]1O [TRIDOLGOSIR],,> 100 µM (inactive),> 100 µM (inactive),> 100 µM (inactive),> 100 µM (inactive),> 100 µM (inactive),> 100 µM (inactive),> 100 µM (inactive),> 100 µM (inactive),> 100 µM (inactive),> 100 µM (inactive),> 100 µM (inactive),> 100 µM,> 100 µM (inactive),> 100 µM (inactive),> 100 µM (inactive),> 100 µM (inactive),> 100 µM (inactive),> 100 µM (inactive),> 100 µM (inactive)
O=c1c(-c2ccccc2)c(SCCN2CCOCC2)n(-c2ccccc2)c(=S)n1-c1ccccc1,> 100 µM (inactive),> 100 µM (inactive),,> 100 µM (inactive),,> 100 µM (inactive),> 100 µM (inactive),35.3 µM (inactive),46.9 µM (inactive),> 100 µM (inactive),74 µM (inactive),,> 100 µM,> 100 µM (inactive),> 100 µM (inactive),> 100 µM (inactive),> 100 µM (inactive),> 100 µM (inactive),,> 100 µM (inactive)
N/C(S)=N/N=C/c1cc(CN2CCOCC2)c(N)cn1,89.5 µM (inactive),79.8 µM (inactive),50.2 µM (inactive),53 µM (inactive),61.8 µM (inactive),60.3 µM (inactive),23.6 µM (inactive),12.7 µM (inactive),> 100 µM (inactive),38.4 µM (inactive),30.3 µM (inactive),62.4 µM (inactive),15 µM,39.4 µM (inactive),37 µM (inactive),84.3 µM (inactive),28.6 µM (inactive),48.2 µM (inactive),,27.5 µM (inactive)
C=CCOC1OC(CS(=O)(=O)O)C(O)C(O)C1O (centres undefined),27 µM (inactive),> 100 µM (inactive),> 100 µM (inactive),> 100 µM (inactive),> 100 µM (inactive),> 100 µM (inactive),> 100 µM (inactive),> 100 µM (inactive),> 100 µM (inactive),> 100 µM (inactive),> 100 µM (inactive),> 100 µM (inactive),> 100 µM,> 100 µM (inactive),> 100 µM (inactive),> 100 µM (inactive),> 100 µM (inactive),> 100 µM (inactive),,
CC(=O)c1ccccc1NP(=O)(c1ccccc1)c1ccccc1,62.5 µM (inactive),16.6 µM (inactive),47.1 µM (inactive),20.4 µM (inactive),53.2 µM (inactive),> 100 µM (inactive),50.7 µM (inactive),,43.2 µM (inactive),43.6 µM (inactive),> 100 µM (inactive),69.5 µM (inactive),66.4 µM,79.1 µM (inactive),31.4 µM (inactive),54.1 µM (inactive),68.9 µM (inactive),33.2 µM (inactive),56.9 µM (inactive),70.3 µM (inactive)
CSC1SCC2C(=O)N(C)C(C(C)C)C(=O)OCC(NC(=O)c3cnc4ccccc4n3)C(=O)NC(C)C(=O)N(C)C1C(=O)N(C)C(C(C)C)C(=O)OCC(NC(=O)c1cnc3ccccc3n1)C(=O)NC(C)C(=O)N2C (centres undefined),,0.0075 µM (active),0.0075 µM (active),< 0.0147 µM (active),0.00885 µM (active),0.0075 µM (active),0.0075 µM (active),0.0075 µM (active),0.00895 µM (active),0.0075 µM (active),0.0075 µM (active),0.0075 µM (active),0.0101 µM,,0.0075 µM (active),0.0178 µM (active),,0.0193 µM (active),0.0075 µM (active),
Cc1ccc(-c2nc3cc(F)c(N4CCN(C)CC4)cc3[nH]2)cc1,16.4 µM (inactive),33.6 µM (inactive),,23.4 µM (inactive),19.6 µM (inactive),21.9 µM (inactive),14 µM (inactive),8.3 µM (inactive),18.5 µM (inactive),16.9 µM (inactive),15.8 µM (inactive),54.1 µM (inactive),6.32 µM,22.2 µM (inactive),32.7 µM (inactive),17.1 µM (inactive),17.2 µM (inactive),21.4 µM (inactive),19.1 µM (inactive),
